One may read the IC50 as the concentration at which inhibition is half-maximal.

The text below walks through data of patent US20200377477A1, “DEGRADERS OF EGFR AND METHODS OF USE THEREOF” (DANA-FARBER CANCER INSTITUTE, INC., priority 2018, published 2020).

Where two headings read alike, the source gives them in different places.

The target in assay [1] is T1, EGFR T790M/L858R Ba/F3 cell line (Homo sapiens, UniProt P00533, T790M/L858R, cells depend on it).
T1 construct: The constructs were shuttled into the retroviral vector JP1540 using the BD Creator™ System (BD Biosciences)
T1 sequence (P00533 whole entry T790M/L858R): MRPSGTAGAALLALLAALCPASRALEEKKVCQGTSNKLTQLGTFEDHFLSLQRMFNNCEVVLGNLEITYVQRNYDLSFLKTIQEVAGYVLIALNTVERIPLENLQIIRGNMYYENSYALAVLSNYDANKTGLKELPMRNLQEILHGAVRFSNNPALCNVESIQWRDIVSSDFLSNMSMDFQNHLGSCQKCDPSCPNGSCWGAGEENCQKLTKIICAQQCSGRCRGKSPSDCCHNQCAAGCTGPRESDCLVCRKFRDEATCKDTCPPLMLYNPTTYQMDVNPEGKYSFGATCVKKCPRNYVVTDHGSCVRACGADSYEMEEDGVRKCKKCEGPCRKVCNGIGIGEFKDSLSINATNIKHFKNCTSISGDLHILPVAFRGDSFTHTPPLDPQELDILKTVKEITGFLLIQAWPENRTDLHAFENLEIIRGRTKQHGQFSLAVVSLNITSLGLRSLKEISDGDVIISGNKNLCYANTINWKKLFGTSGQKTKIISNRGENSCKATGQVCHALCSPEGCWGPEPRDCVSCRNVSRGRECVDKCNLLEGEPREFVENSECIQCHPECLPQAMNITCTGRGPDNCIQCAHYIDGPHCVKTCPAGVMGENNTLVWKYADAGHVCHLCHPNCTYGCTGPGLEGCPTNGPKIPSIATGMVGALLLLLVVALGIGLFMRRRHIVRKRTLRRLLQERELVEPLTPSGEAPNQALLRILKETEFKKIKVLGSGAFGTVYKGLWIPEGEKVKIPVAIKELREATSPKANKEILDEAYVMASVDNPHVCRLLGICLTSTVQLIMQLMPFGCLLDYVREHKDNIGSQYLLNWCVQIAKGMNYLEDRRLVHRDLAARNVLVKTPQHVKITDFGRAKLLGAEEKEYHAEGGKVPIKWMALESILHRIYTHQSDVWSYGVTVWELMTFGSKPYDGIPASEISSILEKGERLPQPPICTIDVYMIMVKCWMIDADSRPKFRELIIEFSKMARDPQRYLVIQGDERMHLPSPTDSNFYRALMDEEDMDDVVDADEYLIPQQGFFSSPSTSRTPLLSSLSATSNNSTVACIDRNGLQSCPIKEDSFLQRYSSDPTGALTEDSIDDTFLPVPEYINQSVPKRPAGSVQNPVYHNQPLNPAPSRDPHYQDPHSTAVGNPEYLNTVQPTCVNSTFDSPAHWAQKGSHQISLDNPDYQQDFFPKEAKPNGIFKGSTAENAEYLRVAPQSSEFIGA
Nature of the assay: Ba/F3 cell proliferation (MTS assay), EGFR T790M/L858R. The format is cell-based, murine. As for the experimental part:
The EGFR mutant L858R, Del E746_A750, L858R/T790M, DelE746_A750/T790M, L858R/T790M/C797S and Del/T790M/C797S Ba/F3 cells were previously described (Zhou e al., Nature 462, (2009), 1070-1074). All cell lines were maintained in RPMI 1640 (Cellgro; Mediatech Inc., Hemdon, Calif.) supplemented with 10% FBS 100 units/mL penicillin, 100 units/mL streptomycin, and 2 mM glutamine. L858R cells were maintained in ACL-4 media (Invitrogen, Carlsbad, Calif.) supplemented with 5% FBS, 100 units/mL penicillin, 100 units/mL streptonycin, and 2 mM glutamine. The EGFR I941R mutation was introduced via site directed mutagenesis using the Quick Change Site-Directed Mutagenesis kit (Stratagene; La Jolla, Calif.) according to the manufacturer's instructions. All constructs were confirmed by DNA sequencing. The constructs were shuttled into the retroviral vector JP1540 using the BD Creator™ System (BD Biosciences). Ba/F3 cells were infected with retrovirus and according to standard protocols, as described previously (Zhou 2009). Stable clones were obtained by selection in puromycin (2 μg/ml).
Growth and inhibition of growth was assessed by MTS assay and was performed according to previously established methods (Zhou 2009). The MTS assay is a colorimetric method for determining the number of viable cells that is based on the bioreduction of MTS by cells to a formazan product that is soluble in cell culture medium and can be detected spectrophotometrically. […] All experimental points were set up in six wells and all experiments were repeated at least three times. […] The curves were fitted using a non-linear regression model with a sigmoidal dose response.
In general terms: Formazan colour is commonly taken as a measure of viable cells.

For assay [2], the target named is T2, recombinant EGFR T790M/L858R kinase (Homo sapiens, UniProt P00533, L858R/T790M).
T2 construct: Constructs spanning residues 696-1022 of the human EGFR; GST (cleaved yes); made in house; host or cells: Sf9 insect cells
T2 sequence (P00533 696-1022 T790M/L858R): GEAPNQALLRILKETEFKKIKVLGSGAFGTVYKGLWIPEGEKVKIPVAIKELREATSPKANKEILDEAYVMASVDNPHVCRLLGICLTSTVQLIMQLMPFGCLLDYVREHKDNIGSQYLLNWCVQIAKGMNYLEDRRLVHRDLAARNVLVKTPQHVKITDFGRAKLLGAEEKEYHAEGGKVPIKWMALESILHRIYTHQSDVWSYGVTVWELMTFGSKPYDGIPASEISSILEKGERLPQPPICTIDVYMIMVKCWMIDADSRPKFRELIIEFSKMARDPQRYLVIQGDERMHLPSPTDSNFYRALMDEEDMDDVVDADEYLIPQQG
Description: HTRF-based EGFR biochemical assay. The procedure:
Constructs spanning residues 696-1022 of the human EGFR (including wild type and L858R, L858R/T790M, T790M, and T790M/V948R mutant sequences) were prepared in a GST-fusion format using the pTriEX system (Novagen) for expression in Sf9 insect cells essentially as described (Yun et al., PNAS 105, 2070-2075 (2008); Yun et al., Cancer Cell 11, 217-227 (2007)). EGFR kinase proteins were purified by glutathione-affinity chromatography followed by size-exclusion chromatography after cleavage with TEV or thrombin to remove the GST fusion partner following established procedures. (Yun 2008; Yun 2007).
EGFR biochemical assays were carried out using a homogeneous time-resolved fluorescence (HTRF) assay as described previously. The reaction mixtures contained 1 μM biotin-Lck-peptide substrate, wild type or mutant EGFR enzyme in reaction buffer (50 mM HEPES pH 7. 1, 10 mM MgCl2, 0.01% BSA, 1 mM TCEP and 0.1 mM Na3VO4) at a final volume of 10 μL. Enzyme concentrations were adjusted to accommodate varying kinase activity and ATP concentrations (0.2-0.4 nM L858R/T790M; or 2-4 nM L858R, or 2-4 nM T790M, or nM WT). All reactions were carried out at room temperature in white ProxiPlate™ 384-well Plus plates (PerkinElmer) and were quenched with 5 μL of 0.2 M EDTA at 60 min. Five μL per well of the detection reagent containing 2.5 ng PT66K (Cis-bio) and 0.05 μg SAXL (Prozyme) were added, and the plates were then incubated at room temperature for 1 hour and read with an EnVision plate reader.

The mark [3] stands for this setting: absence of cetuximab, read-out: Ba/F3 cellular activity (EC50) T790M/L858R.
[4] abbreviates: read-out: Ba/F3 cellular activity (EC50) T790M/L858R + Cetuximab, presence of 1 μg/mL cetuximab.

Take `O=C(CCl)Nc1ccc2c(c1)N(Cc1ccccc1)C(=O)c1cc(-c3ccc4[nH]ccc4c3)ccc1N2` [I-2]: the EC50 in assay [1] (setting [3]) and in assay [1] (setting [4]) was less than 0.25 µM in each case. The half-inhibitory concentration (IC50) in assay [2] was no less than 0.75 µM.
Consider `O=C1c2cc(Br)ccc2Nc2ccc(F)cc2N1Cc1ccccc1` [I-a, 10-Benzyl-2-bromo-8-fluoro-5,10-dihydro-11H-dibenzo[b,e][1,4]diazepin-11-one], for which the EC50 was no less than 0.75 µM in assay [1] (setting [3]) and 0.25 to 0.5 µM in assay [1] (setting [4]).
For `C=CC(=O)Nc1ccc2c(c1)N(Cc1ccccc1)C(=O)c1cc(-c3ccc(N4CCNCC4)cc3)ccc1N2` [I-3, N-(10-Benzyl-11-oxo-2-(4-(piperazin-1-yl)phenyl)-10,11-dihydro-5H-dibenzo[b,e][1,4]diazepin-8-yl)acrylamide], the EC50 in assay [1] (setting [3]) and in assay [1] (setting [4]) was no less than 0.75 µM each time. The 50% inhibitory concentration (IC50) in assay [2] was no less than 0.75 µM.
On to `C=CC(=O)Nc1ccc2c(c1)N(Cc1ccccc1)C(=O)c1cc(-c3ccc4[nH]ccc4c3)ccc1N2` [I-1], for which the EC50 in assay [1] (setting [3]) was no less than 0.75 µM; in assay [1] (setting [4]) it was 0.5 to 0.75 µM. Further, the IC50 in assay [2] is no less than 0.75 µM.
